Patent US20240352066A1, “ANTIMICROBIAL COMPOUNDS AND THE METHOD OF USE” (priority 2021, published 2024)
In brackets after ≈: the same amount, converted by molar mass. Where a SMILES comes first, the peptide text is derived from it. [ ]: non-standard residue; d: D form. N(tridecyl)Gly = CCCCCCCCCCCCCNCC(=O)O; N(4-F-Bzl)Gly = O=C(O)CNCc1ccc(F)cc1; Gly(N-2-aminoethyl) = NCCNCC(=O)O; Nspe = C[C@H](NCC(=O)O)c1ccccc1; Nlys = NCCCCNCC(=O)O

What was measured:
[1] = Mammalian cytotoxicity, MTT, HepG2; format: cell-based, human; conditions: human, HepG2 hepatocellular carcinoma cells
Protocol: Hepatocellular carcinoma (HepG2), mouse fibroblast (3T3), human lung (HPL1A), and human keratinocyte (HaCat) cells were cultured in Dulbecco modified eagle media (DMEM) containing 10% fetal bovine serum (FBS) and 1% penicillin, streptomycin, and glutamine (PSG) at 37° C. and 5% CO2. Cells were collected and adjusted to […] to 4×10^5 cells/mL in phenol-red free DMEM and plated (100 μL) 96 well plates. 2-fold serial dilutions of 10× peptoid (11.1 μL) were added to each well in triplicate. Water (vehicle) was used as a negative control. Plates were incubated at 37° C. in 5% CO2 for 72 hours. Thiazolyl blue tetrazolium bromide (MTT) was added to each well (5 mg/mL; 20 μL) and incubated for 3 hours. Media was removed, DMSO (100 μL) was added, and plates were incubated at 37° C. for 10 minutes. Plates were read on a SpectraMax M5 plate reader (Abs. 570 nm). The concentration of compound resulting in a 50% reduction in growth compared to control (toxicity dose 50%; TD50) was determined using GraFit. This procedure was repeated three times on separate days.
Cytotoxicity against HepG2 hepatocellular carcinoma cells was done as previously described (Green et al. ACS infectious diseases, (2022); Corson et al. ACS medicinal chemistry letters 7 12, 1139-1144 (2016)). HepG2 cells were maintained in culture in T-75 flasks using Dulbecco's Modified Eagle's Media (DMEM) with phenol red pH indicator and supplemented with 10% fetal bovine serum (FBS) and 1% penicillin, streptomycin, and glutamine (PSG). The cells were incubated at 37° C. and 5% CO2 in a humidified incubator until desired confluency was achieved. The media was removed from the flask, and the cells were washed 1× with 10 mL of phosphate-buffered saline (PBS; 11.8 mM phosphate, 140.4 mM NaCl; pH 7.4) which was then discarded. To remove the adhered cells from the flask, 2 mL of trypsin was added, and the cells were incubated for 10 minutes. To quench the trypsin, 8 mL of phenol red-free DMEM with 10% FBS and 1% PGS was added, and the cell solution was transferred to a 15 mL conical tube. After the cells were pelleted by centrifugation at 1000 rpm for 5 minutes, the supernatant was poured off and cells resuspended in the volume of phenol red-free media needed for the assay. Cell concentration was determined by counting with a hemocytometer, and the solution was diluted with media until a concentration of 1×10^5 cells/mL was achieved. A 100 μL aliquot of cell solution was added to each well of a 96-well plate, apart from the 3 wells used for a media control. Cells were incubated for 2-3 hours at 37° C. and 5% CO2 until cells were adherent.
Compound stocks of 20 mg/mL were used to prepare 2-fold serial dilutions of each compound in sterile water, giving final concentrations of 200, 100, 50, 25, 12.5, 6.25, 3.13 and 1.56 μg/mL. 11.1 μL of prepared compound solutions was added to the appropriate wells in triplicate. A negative vehicle control of sterile water, as well as the aforementioned media control, were used. The plates were incubated for 72 hours at 37° C. and 5% CO2. After incubation, 20 μL of 5 mg/mL 3-(4,5-dimethylthiazol-2-yl)-2,5-diphenyltetrazolium bromide (MTT) in water was added to each well. The plate was incubated for 3 hours at 37° C. and 5% CO2. Media was removed from each well using a sterile glass Pasteur pipette. 100 μL of DMSO was added to each well and incubated for 15 minutes at 37° C. Absorbance was read at 570 nm using a SpectraMax M5 Plate Reader. This MTT assay was performed in biological duplicate unless discrepant results were observed. If this was the case, the assay was performed in biological triplicate for further verification. The reported value is the average of biological replicates with standard deviation.

C. neoformans = format: cell-based, Cryptococcus neoformans; conditions: 72 h
Protocol: The minimum inhibitory concentration (MIC) of peptoids against fungal pathogens C. albicans and C. neoformans was determined following CLSI guidelines (CLSI. Reference method for broth dilution antifungal susceptibility testing of yeasts; approved standard-third edition; CLSI document M27-A3. (Clinical and Laboratory Standards Institute, 2008). […] This inoculant was diluted 1:100 into RPMI-MOPS and then further diluted 1:20 into RPMI-MOPS. 198 μL of inoculant was seeded into each well of a 96 well black-walled plate. 2-fold serial dilutions of 100× peptoid solutions were prepared in water and 2 μL of peptoid were added to each well in triplicate. […] MIC was defined as the lowest concentration of compound preventing fungal growth. This assay was repeated 3 times on separate days with each compound. […] The addition of 0.1 mL cell solution to 9.9 mL of RPMI-MOPS produced a 1:100 cell solution. After vortexing, 0.5 mL of the […] was added to 9.5 mL RPMI-MOPS to produce a 1:20 cell solution. 198 μL of the 1:20 solution was added to the wells of an opaque 96-well plate, apart from the wells designated for the medial control. […] Amphotericin B was used as a positive control, and sterile water was used for the vehicle control. The plates were incubated for 72 hours at 35° C. After incubation, the concentration of compound resulting in no visual growth was recorded as the MIC. All assays performed in biological triplicate on different days.

[2] = system: human red blood cells (hRBC); assay: Hemolytic activity against human red blood cells; format: cell-based; conditions: Example 2; same donor sample of hRBCs
Protocol: Hemolytic activity was determined using single donor human red blood cells (hRBC). hRBCs were washed with PBS and centrifuged (1000 RPM; 10 minutes) three times, resuspended in PBS and aliquoted (100 μL) in 96 well plates. 2-fold serial dilutions of 10× peptoid final concentrations in PBS were prepared and added to wells in triplicate. PBS was used as a vehicle control and 1% Triton X-100 as a positive control. Plates were incubated for 1 hour (37° C.; 5% CO2) then centrifuged (1000 RPM; 10 minutes) and supernatant was diluted 1:20 into PBS in a new 96-well plate. Plates were read on a SpectraMax M5 plate reader (Abs. 405 nm). Percent hemolysis was determined by the following equation: […]
GraFit was used to determine concentrations at 50% hemolytic activity (HC50) and the Hill coefficient (H). Hemolytic activity at 10% (HC10) was then determined by the following equation: […]
The hemolytic activity of select peptoids was determined as done previously (Green et al. ACS medicinal chemistry letters 12 9, 1470-1477 (2021); Middleton et al. Bioorganic & medicinal chemistry letters 28 22, 3514-3519 (2018)). Selected peptoids were prepared in 2-fold serial dilutions in PBS at the desired concentrations. Human red blood cells (hRBCs, 9 mL) were centrifuged at 1000 rpm for 10 minutes, and the supernatant was removed and discarded. A 10 mL aliquot of PBS was used to resuspend the hRBCs which were centrifuged again at 1000 rpm for 10 minutes. This PBS wash was completed two more times for a total of three washes. A 9 mL aliquot of PBS was added to the hRBCs, and 100 μL of cell solution was added to individual wells of a 96-well plate. Peptoid solutions (11.1 μL) were added to the appropriate wells in triplicate. A vehicle control of PBS and positive control of 1% Triton X-100 were added to wells in triplicate.
The plate was incubated at 37° C. for 1 hour and centrifuged at 1000 rpm for 10 minutes. For each well, 5 μL of supernatant was transferred to 95 μL of PBS in a new 96-well plate. The absorbance at 405 nm was measured using a SpectraMax M5 Plate Reader, and the percent hemolysis was calculated as follows: […]

C. albicans = assay: Peptoid library agar diffusion (PLAD) screening of library RGL8; format: cell-based, Candida albicans; conditions: RPMI-MOPS media
From the text: Antimicrobial peptoids of the present disclosure may have biological activity. Biological activity can be antimicrobial activity against a microbe, e.g., a fungal pathogen, a bacterial pathogen, or a combination thereof. A peptoid library agar diffusion (PLAD) assay may be used to identify peptoids that have antimicrobial activity (Fischer et al., ACS Comb. Sci. 18, 287-291 (2016); Corson et al., ACS Med. Chem. Lett. 7, 1139-1144 (2016); Turkett et al., ACS Comb. Sci. 18, 287-291 (2016)). The PLAD assay uses a PLAD chemical linker. […] Beads containing the PLAD linked peptoids are embedded in an agar medium where the agar medium is inoculated with the microbe of interest. The β-strand peptoid is released by a reducing reagent. The reducing agent cleaves a disulfide within the PLAD linker, allowing the β-strand peptoid to interact with microbes around the bead. If the released peptoid has antimicrobial activity, a zone of inhibited growth will be present. The α-strand peptoid remains attached to the bead during the screening process. […] The chemical cleavage of the α-strand peptoid is be accomplished at a C-terminal methionine of the PLAD linker using cyanogen bromide. […] The PLAD assay may be adapted to screen a peptoid of interest against different types of microbes of interest through slight modifications of the assay parameters. […]

Compound | CC50 at 72 h [1] [µg/mL] | C. neoformans MIC (C. neoformans) [µg/mL] | hRBC HC10 [2] [µg/mL] | PLAD screening result (zone of inhibited fungal growth) (C. albicans)
CCCCCCCCCCCCCNCC(=O)N(CC(=O)N(CCCCN)CC(=O)N(CCN)CC(=O)N(CC(N)=O)[C@@H](C)c1ccccc1)[C@@H](C)c1ccccc1 [Compound 16] (H-[N(tridecyl)Gly][Nspe][Nlys][Gly(N-2-aminoethyl)][Nspe]-NH2) | 167 ± 104 (≈ 207 µM) | 1.56 to 3.13 | 38 ± 11 | –
CCCCCCCCCCCCCNCC(=O)N(CC(=O)N(CCCCN)CC(=O)N(CCN)CC(=O)N(CC(N)=O)Cc1ccc(F)cc1)Cc1ccc(F)cc1 [Compound 17] (H-[N(tridecyl)Gly][N(4-F-Bzl)Gly][Nlys][Gly(N-2-aminoethyl)][N(4-F-Bzl)Gly]-NH2) | 150 ± 7 (≈ 184 µM) | 1.56 to 3.13 | 59 ± 22 | –
Ntri-Ncha-Ncha-Ncha-Ncha | – | – | – | hit
